One may read the MIC as the lowest concentration that inhibits growth of the organism.

We go through six molecules from DBAASP.

Holding throughout (test): ≥ marks a high value that may be exact or a test limit, other limits are often not marked, values filed in µg/mL are converted to µM
For assay [1], the system named is Escherichia coli 55B5.
Assay [2] has as its system Escherichia coli UB1005.
Assay [3] deals with Pseudomonas aeruginosa.
Assay [4] relates to Salmonella typhimurium.
Assay [5] has as its system Staphylococcus aureus.
Assay [6] deals with Acinetobacter calcoaceticus.
Assay [7] deals with Bacillus cereus.
For assay [8], the system named is Bacillus pumilus.
Assay [9] relates to Candida albicans ATCC 2002.
Assay [10] concerns Escherichia coli ATCC 25922.
The subject of assay [11] is Shigella dysenteriae.
The subject of assay [12] is Staphylococcus aureus ATCC 2592.
In assay [13] the test system is Escherichia coli ATCC 11775.
In assay [14] the test system is Escherichia coli SBS 363.
The subject of assay [15] is Micrococcus luteus A270.
Assay [16] deals with Micrococcus luteus ATCC 49732.
Assay [17] deals with Pseudomonas aeruginosa ATCC 14502.
Assay [18] concerns Staphylococcus aureus ATCC 12600.
Assay [19] relates to Staphylococcus aureus ATCC 43300.
Assay [20] concerns Staphylococcus aureus ATCC 6538.
The subject of assay [21] is Bacillus subtilis ATCC 6633.
Assay [22] relates to Escherichia coli DH5alpha.
The subject of assay [23] is Escherichia coli DSM 1103.
The test system of assay [24] is Kocuria rhizophila DSM 348.
Assay [25] concerns Micrococcus luteus DSM 1790.
Assay [26] deals with Staphylococcus aureus ATCC 25923.
Assay [27] relates to Staphylococcus aureus DSM 1104.
Assay [28] has as its system Bacillus subtilis.
For assay [29], the system named is Helicobacter pylori NCTC 11637.
For assay [30], the system named is Candida glabrata 090902.
The test system of assay [31] is Nocardia asteroides 201118.

≈ marks a conversion by molar mass, not a printed value. A value given as a limit tells only on which side of the number the result lay.

On to `CC[C@H](C)[C@H](NC(=O)[C@H](C)N)C(=O)N[C@@H](Cc1cnc[nH]1)C(=O)N[C@@H](CCCCN)C(=O)N[C@@H](CC(C)C)C(=O)N[C@@H](C)C(=O)N[C@@H](Cc1cnc[nH]1)C(=O)N[C@@H](CCCCN)C(=O)N[C@@H](CC(C)C)C(=O)N[C@@H](CC(C)C)C(=O)N[C@@H](CCCCN)C(=O)N[C@@H](CCCCN)C(=O)N[C@@H](CC(C)C)C(=O)N[C@@H](CC(C)C)C(=O)N[C@@H](CCCN=C(N)N)C(=O)N[C@@H](C)C(=O)N[C@H](C(=O)N[C@@H](CCCCN)C(=O)N[C@@H](CCCCN)C(=O)N[C@@H](CC(C)C)C(=O)N[C@@H](C)C(=O)N[C@@H](CC(N)=O)C(=O)O)C(C)C` [AIHKLAHKLLKKLLRAVKKLAN], for which the minimal inhibitory concentration (MIC) was 2.5 µM (≈ 6.27 µg/mL) in assay [1]; 3.1 µM (≈ 7.77 µg/mL) in assay [2]; 4.5 µM (≈ 11.3 µg/mL) in [3]; 6 µM (≈ 15 µg/mL) in assay [4]; 30 µM (≈ 75.2 µg/mL) in assay [5].

For the molecule `CC[C@H](C)[C@H](NC(=O)CN)C(=O)N[C@@H](Cc1ccccc1)C(=O)N[C@@H](C)C(=O)N[C@@H](CC(C)C)C(=O)N[C@H](C(=O)N[C@@H](CCCCN)C(=O)N[C@H](C(=O)N[C@@H](C)C(=O)N[C@@H](C)C(=O)N[C@@H](CCCCN)C(=O)N[C@@H](Cc1ccccc1)C(=O)N[C@H](C(=O)NCC(=O)N[C@@H](CCCCN)C(=O)N[C@@H](CC(N)=O)C(=O)N[C@@H](CC(C)C)C(=O)N[C@@H](CC(C)C)C(=O)N[C@@H](CCCCN)C(=O)N[C@@H](CCC(N)=O)C(=O)N[C@@H](C)C(=O)NCC(=O)N[C@@H](CCCCN)C(=O)N[C@@H](C)C(=O)NCC(=O)N[C@@H](CC(C)C)C(=O)N[C@@H](CCC(=O)O)C(=O)N[C@@H](Cc1cnc[nH]1)C(=O)N[C@@H](CC(C)C)C(=O)N[C@@H](C)C(=O)N[C@H]1CSSC[C@@H](C(=O)O)NC(=O)[C@H](CCC(N)=O)NC(=O)[C@H](CC(N)=O)NC(=O)[C@H](CC(N)=O)NC(=O)[C@H](C)NC(=O)[C@H](CCCCN)NC1=O)C(C)C)[C@@H](C)O)[C@@H](C)CC` [GIFALIKTAAKFVGKNLLKQAGKAGLEHLACKANNQC], the minimum inhibitory concentration (MIC) was 6.46 µM (≈ 25 µg/mL) in assay [6]; 1.94 µM (≈ 7.5 µg/mL) in [7]; 0.646 µM (≈ 2.5 µg/mL) in assay [8]; 0.646 µM (≈ 2.5 µg/mL) in assay [9]; 3.23 µM (≈ 12.5 µg/mL) in [10]; 12.9 µM (≈ 50 µg/mL) in assay [3]. In addition, the MIC in [11] is 1.94 µM (≈ 7.5 µg/mL); in assay [12], 0.646 µM (≈ 2.5 µg/mL).

For the molecule `CC[C@H](C)[C@H](NC(=O)[C@H](C)NC(=O)[C@H](C)NC(=O)[C@H](CCC(=O)O)NC(=O)[C@H](CCCCN)NC(=O)CNC(=O)[C@@H](NC(=O)[C@H](CC(N)=O)NC(=O)[C@H](CCCCN)NC(=O)[C@@H](NC(=O)[C@@H](NC(=O)[C@H](CO)NC(=O)[C@H](Cc1c[nH]c2ccccc12)NC(=O)[C@H](CC(C)C)NC(=O)CN)[C@@H](C)O)[C@@H](C)CC)C(C)C)C(=O)N[C@@H](C)C(=O)N[C@@H](C)C(=O)NCC(=O)N[C@@H](CCCCN)C(=O)N[C@@H](C)C(=O)N[C@@H](C)C(=O)N[C@@H](CC(C)C)C(=O)NCC(=O)N[C@@H](C)C(=O)N[C@@H](CC(C)C)C(N)=O` [GLWSTIKNVGKEAAIAAGKAALGAL], the MIC in assay [13] turned out to be 0.8 µM (≈ 1.93 µg/mL); in [10], 6.6 µM (≈ 15.9 µg/mL); in [14], 6 µM (≈ 14.5 µg/mL); in assay [15] it was 6 µM (≈ 14.5 µg/mL); in assay [16] it was 0.8 µM (≈ 1.93 µg/mL); in assay [17], 6 µM (≈ 14.5 µg/mL). In addition, the minimal inhibitory concentration (MIC) in assay [3] was found to be 6.6 µM (≈ 15.9 µg/mL); in assay [18] it was 0.4 µM (≈ 0.964 µg/mL); in [19], 26.5 µM (≈ 63.9 µg/mL); in [20] it was 6 µM (≈ 14.5 µg/mL).

Regarding `CC[C@H](C)[C@H](NC(=O)[C@H](C)NC(=O)CNC(=O)[C@H](C)NC(=O)[C@H](CCCCN)NC(=O)[C@H](CO)NC(=O)[C@H](C)NC(=O)[C@H](CCSC)NC(=O)CN)C(=O)N[C@@H](C)C(=O)NCC(=O)N[C@@H](CCCCN)C(=O)N[C@H](C(=O)N[C@@H](C)C(=O)N[C@@H](CCCCN)C(=O)N[C@H](C(=O)N[C@@H](C)C(=O)N[C@@H](CC(C)C)C(=O)N[C@@H](CCCCN)C(=O)N[C@@H](C)C(=O)N[C@@H](CC(C)C)C(=O)O)C(C)C)[C@@H](C)CC` [GMASKAGAIAGKIAKVALKAL], the minimal inhibitory concentration (MIC) in [21] is 16.2 µM (≈ 32 µg/mL); in assay [10], 0.0305 µM (≈ 0.0601 µg/mL); in assay [22] it was at least 65 µM; in [23] it was at least 65 µM; in [24], at least 65 µM; in assay [25] it was at least 65 µM. Further, the minimum inhibitory concentration (MIC) in [26] is 5.08 µM (≈ 10 µg/mL); in assay [27] it was at least 65 µM.

Take `CC[C@H](C)[C@H](NC(=O)[C@H](CCC(N)=O)NC(=O)[C@H](CCCCN)NC(=O)[C@H](Cc1c[nH]c2ccccc12)NC(=O)[C@H](CC(C)C)NC(=O)[C@H](CCC(N)=O)NC(=O)[C@@H]1CCCN1C(=O)[C@H](CC(C)C)NC(=O)[C@H](CCCCN)NC(=O)[C@H](C)NC(=O)[C@H](CCC(=O)O)NC(=O)[C@H](CCCCN)NC(=O)[C@@H](NC(=O)[C@H](CCSC)NC(=O)[C@@H](NC(=O)[C@@H](NC(=O)[C@@H](NC(=O)[C@@H](N)CO)[C@@H](C)CC)[C@@H](C)CC)[C@@H](C)O)[C@@H](C)O)C(=O)N[C@@H](C)C(=O)N[C@H]1CSSC[C@@H](C(=O)O)NC(=O)[C@H]([C@@H](C)O)NC(=O)[C@H](CC(N)=O)NC(=O)[C@H](Cc2ccc(O)cc2)NC(=O)[C@H](CC(C)C)NC(=O)[C@H](CCCN=C(N)N)NC1=O` [SIITMTKEAKLPQLWKQIACRLYNTC]: the MIC is at least 39.3 µM in [28]; 9.82 µM (≈ 30 µg/mL) in [9]; 19.6 µM (≈ 60 µg/mL) in assay [10]; 9.82 µM (≈ 30 µg/mL) in assay [29]; at least 39.3 µM in [11]; 4.91 µM (≈ 15 µg/mL) in [12].

Turning to `CC[C@H](C)[C@H](NC(=O)[C@H](Cc1ccccc1)NC(=O)CNC(=O)[C@H](CCCCN)NC(=O)CNC(=O)[C@H](C)NC(=O)[C@H](CC(N)=O)NC(=O)[C@H](CCCCN)NC(=O)[C@@H](NC(=O)[C@@H](NC(=O)[C@H](CCC(=O)O)NC(=O)[C@H](Cc1c[nH]c2ccccc12)NC(=O)[C@H](CC(C)C)NC(=O)[C@@H](N)CO)[C@@H](C)O)[C@@H](C)CC)C(=O)N[C@@H](CC(C)C)C(=O)N[C@@H](CC(N)=O)C(=O)N[C@H](C(=O)N[C@@H](CC(C)C)C(=O)N[C@@H](CC(=O)O)C(=O)N[C@@H](CCCCN)C(=O)N[C@H](C(=O)N[C@@H](CCCN=C(N)N)C(=O)N[C@H]1CSSC[C@@H](C(=O)N[C@@H](CCCCN)C(=O)N[C@H](C(=O)O)[C@@H](C)O)NC(=O)CNC(=O)CNC(=O)[C@H](C)NC(=O)[C@H](C(C)C)NC(=O)[C@H](CCCCN)NC1=O)[C@@H](C)CC)[C@@H](C)CC` [SLWETIKNAGKGFILNILDKIRCKVAGGCKT], the minimal inhibitory concentration (MIC) in [28] is 2.78 µM (≈ 9.37 µg/mL); in [9], 4.44 µM (≈ 15 µg/mL); in [30], at least 150 µM; in assay [10], 75 µM (≈ 253 µg/mL); in assay [31] it was 4.7 µM (≈ 15.9 µg/mL); in assay [19] it was 2.78 µM (≈ 9.37 µg/mL).
